{"source": "paper PMC8261488", "about": "“Contraceptive progestins with androgenic properties stimulate breast epithelial cell proliferation” (EMBO Molecular Medicine, 2021)", "key": {"Rankl": {"test_system": "Rankl", "test": "Rankl transcript levels by RT-PCR in mouse mammary organoids stimulated ex vivo", "format": "cell-based"}, "Wnt4": {"test_system": "Wnt4", "test": "Wnt4 transcript levels by RT-PCR in mouse mammary organoids stimulated ex vivo", "format": "cell-based"}, "[1]": {"test_system": "endogenous hormone levels in mice", "test": "Endogenous steroid hormone plasma levels in treated host mice by LC-MS", "format": "in vivo, mouse", "conditions": "xenografted NSG females with pellets", "from_the_text": "Next, we assessed whether progesterone and progestins differentially affected endogenous hormone levels in mice. Plasma 17‐β‐estradiol levels were not affected by any of the treatments (Fig 4H). […] Plasma testosterone levels were not altered by any treatment with the exception of DSP, which decreased them (Fig 4H). Thus, prolonged exposures to progestins differentially affect endogenous progesterone plasma levels and DSP decreases testosterone plasma levels in host mice."}, "KLK3": {"test_system": "KLK3", "test": "KLK3 mRNA in xenografted HBECs by RT-PCR with human-specific primers", "format": "in vivo", "conditions": "3 weeks of treatment (Fig 5H)", "from_the_text": "Consistent with AR and PR sharing a common hormone response element (Claessens et al, 1996), KLK3 was induced upon progestin stimulation. […] This is in agreement with previous findings that KLK3 expression is under the control of both androgens and progestins in T47D cells (Zarghami et al, 1997).\n(§1) Next, we sought for a readout of in vivo cell proliferation different from radiance. […] Given that MKI67 expression could replace the luciferase measurements as a readout, we used a modified experimental setup for a second round of experiments. We derived HBECs from viably frozen mammoplasty samples (Appendix Table S3) and engrafted them to different mammary glands of NSG females without viral infection. Four months later, the 24 recipient females, each engrafted with 5 different mammoplasties received pellets containing either vehicle, progesterone, or 1 of 6 progestins for 21 days. At sacrifice, xenografted glands were histologically sectioned and cell proliferation was quantified using co‐IF with anti‐MKI67 and anti‐hECAD antibodies. For one of the mammoplasties, we were able to obtain measurements for all experimental conditions (Fig 5I). […] For the remaining mammoplasties, between 3 and 8 different experimental conditions were successfully quantified (Appendix Table S4). […] CPA (P < 0.0001) decreased proliferation, whereas CMA and DSP had no effect (Fig 5K). As AR signaling increases AR protein levels, we performed co‐IF for AR and hECAD as another means to assess AR signaling activity.\nHuman breast microstructures and mouse organoids were homogenized in Trizol (Invitrogen). Aqueous phase containing RNA was chloroform extracted and processed with miRNeasy extraction kit (Qiagen). cDNA was synthesized using random p(dN)6 primers (Roche) and MMLV reverse transcriptase (Invitrogen). SYBR Green PCR Core Reagent System (Qiagen) was used for semi‐quantitative real time (RT‐PCR) using the following primers."}, "HBECs [2]": {"test_system": "HBECs", "test": "MKI67/Ki67 expression in xenografted HBECs", "format": "in vivo, human", "conditions": "21 days pellets; for cell proliferation (KI67 and hECAD double+ cells), overall analysis: HBECs from 11 different patients; for cell proliferation (KI67 and hECAD double+ cells): one mammoplasty (M310)", "from_the_text": "as §1\n(§2) Tissues were fixed for 2 h at room temperature in 4% paraformaldehyde and paraffin‐embedded. Dewaxed and rehydrated paraffin sections were pretreated in 10 mM Na citrate (pH 6.0) at 95° for 20 min. Blocking was performed with 1% BSA for 60 min. Primary antibodies used were as follows: Ki67 (rabbit α‐Ki67, clone Sp6, Spring Amsbio, dilution 1:200), ER (rabbit α‐ER, clone Sp1, Zytomed RTU), PR (rabbit α‐PR, clone 1E2, Ventana RTU), AR (rabbit α‐AR, clone SP107, Thermo Fisher, diluted 1:200), CK7 (rabbit α‐CK7, clone Sp52, Abcam, diluted 1:500), CK19 (mouse KS19.2 (Z105.6), American Research Products Inc. (diluted 1:50), and mouse α‐ECAD (clone G‐10, sc‐8426, diluted 1:100). For IHC, chromogenic revelation was performed with ChromoMap DAB kit (Roche Diagnostics, Switzerland) and sections were counterstained with Mayer’s hematoxylin. For fluorescence microscopy, nuclei were counterstained with DAPI (Sigma). IHC for ER, PR, and AR was performed on Discovery Ventana ULTRA (44). IHC images were acquired on Leica DM 2000 with Leica DFC450 C camera. IF images were acquired on Zeiss LSM700 confocal microscope. Slides were scanned with Olympus VS120‐L100 slide scanner with 20×/0.75 objective and Pike F505 C Color camera. Images were loaded into QuPath using the BioFormats extension (Bankhead et al, 2017)."}, "HBECs [3]": {"test_system": "HBECs", "test": "In vivo growth of HBEC xenografts treated with LNG with or without enzalutamide", "set-up": "species or system human", "conditions": "3 PDXs, radiance", "procedure": "Mice were anesthetized by intraperitoneal injection with 10 mg/kg xylazine and 90 mg/kg ketamine (Graeub) and injected intraductally with 10 μl cell suspension per gland. […] After 3–10 weeks, when bioluminescence from individual glands reached 10^7 total flux (p/s/cm2/sr), animals were assigned to different treatment groups and hormone pellets implanted subcutaneously. Enzalutamide (Selleckchem, Catalog No. S1250) dissolved in 15% DMSO in PEG300 was injected intraperitoneally 3 times/week at 30 mg/kg."}, "AR [4]": {"test_system": "AR", "test": "In vivo growth of LNG-treated HBEC xenografts transduced with shAR or sh scramble", "set-up": "species or system human", "conditions": "within 60 days", "from_the_text": "To further test the requirement for AR in the context of progestin‐driven proliferation, we took a genetic approach and down modulated AR expression in freshly isolated HBECs using a GFP‐luciferase2‐shAR or GFP‐luciferase2‐sh scramble expressing lentivirus. […] Double IF with anti‐GFP and anti‐AR antibodies and analysis by image quantification confirmed the down regulation of AR protein levels in the shAR infected cells identified based on GFP co‐expression (Fig 7E and F)."}, "human breast epithelium": {"test_system": "human breast epithelium", "conditions": "female, mouse, in vivo, 8 months", "procedure": "All the engrafted glands were processed for histological analysis and H&E stained.\n(§3) Mice were anesthetized by intraperitoneal injection with 10 mg/kg xylazine and 90 mg/kg ketamine (Graeub) and injected intraductally with 10 μl cell suspension per gland. Bioluminescence imaging was performed as described (Sflomos et al, 2016). After 3–10 weeks, when bioluminescence from individual glands reached 10^7 total flux (p/s/cm2/sr), animals were assigned to different treatment groups and hormone pellets implanted subcutaneously. Enzalutamide (Selleckchem, Catalog No. S1250) dissolved in 15% DMSO in PEG300 was injected intraperitoneally 3 times/week at 30 mg/kg."}, "HBECs [5]": {"test_system": "HBECs", "test": "MKI67/Ki67 expression in xenografted HBECs", "format": "in vivo, human", "conditions": "3 weeks of treatment, at endpoint"}, "AR [6]": {"test_system": "AR", "set-up": "method as in earlier work", "conditions": "various assays, ref Fuhrmann et al, 1995, Muhn et al, Bouchard, 2005, Mishell, 2008, Schneider et al, 2009, Africander et al, 2011, Louw‐du Toit et al, 2017; cited from earlier work"}, "women": {"test_system": "women", "conditions": "cited from earlier work"}, "HBECs [7]": {"test_system": "HBECs", "test": "In vivo growth of intraductal HBEC xenografts measured by radiance", "source_text": "To compare the effects of progesterone and different progestins on HBECs in vivo, we infected single cell suspensions obtained from fresh reduction mammoplasty specimens with GFP‐luciferase2‐expressing lentiviruses. The infected cell mixture was grafted intraductally to up to 5 glands of as many recipients as possible. The engraftment and growth of the xenografted cells were monitored weekly by in vivo imaging. When radiance reached > 10E07 on average per mammary gland, 60‐day‐release pellets were implanted subcutaneously, usually within 3–10 weeks after cell injection. At sacrifice, blood was collected and plasma levels of the administered compounds as well as endogenous steroid hormones were determined by liquid chromatography‐mass spectrometry (LC‐MS) (Laszlo et al, 2019).\nNext, the in vivo growth of HBEC xenografts stimulated with progesterone or different progestins was analyzed. […] In addition, the fold change radiance of treated versus untreated samples at endpoint was calculated (Fig 5A–C).\nas §3\nPellets were prepared by mixing the required amount of part A, MP3745/E81949 and part B, MP3744/E81950 of low consistency silicon elastomer (MED‐4011) and hormone powder to homogeneity. Mix was transferred to a syringe and incubated at 37°C overnight. The silicon‐hormone mass was removed from the syringe and cut to pieces, as described (Duss et al, 2007). The original protocol was adapted for different doses as described below."}, "[8]": {"test_system": "human breast tissue microstructures (EpCAM+ cells)", "test": "RNA sequencing of EpCAM+ cells from human breast tissue microstructures stimulated ex vivo", "format": "cell-based", "conditions": "14–18 h exposure, n = 3", "from_the_text": "Having ascertained with mammary tissue from inbred mice that androgenic and anti‐androgenic progestins have different effects on the expression of important PR target genes, we set out to assess the transcriptional response to PR signaling in the human breast epithelium. In view of our goal to perform in vivo experiments with the natural ligand progesterone, we compared the effects of progesterone to those of its stable analog R5020 which is commonly used for in vitro experiments on breast epithelial cells. For this, we used an ex vivo approach with human breast tissue similar to the mouse organoid technique used above that maintains hormone responsiveness (Tanos et al, 2013; Sflomos et al, 2015). In brief, 3 fresh mammoplasty tissue from women with follicular phase progesterone levels were cut into 1 mm^3 pieces and aliquoted for digestion with collagenase and concomitant exposure to either vehicle, R5020, or progesterone for 14–18 h. Tissue microstructures that contain epithelial cells, immune cells, and fibroblasts in varying proportions were recovered. To reduce interpatient variation as far as it relates to different ratios of various cell types, at the end of the treatment, the tissue microstructures were dissociated to single cells and enriched for epithelial cells by FACS sorting with antibodies against the epithelial cell surface marker EpCAM (Fig 2A). The EpCAM^+ cells were processed for RNA sequencing. […] Progesterone affected expression levels of 65 genes, whereas R5020 affected 112 genes, including RANKL (adj.P < 0.05) (Appendix Fig S2A). More than 90% of the progesterone‐induced gene expression changes were induced by R5020 (Fig 2C). […] R5020 induced higher‐fold changes as indicated by the estimated slope of the curve being > 1 (P < 0.0001). […]\nAll experiments conformed to the principles set out in the WMA Declaration of Helsinki and the Department of Health and Human Services Belmont Report. […] Human tissue samples were mechanically and enzymatically dissociated, single cells were prepared, counted, and spin infected using Lenti‐ONE CMV‐GFP(2A)Luc2 WPRE VSV, V621004001, or pR980 Luc2GFP (GEGTECH) at a multiplicity of infection of 1 at 2.500 rpm for 3 h at room temperature in 500 μl of serum‐free medium. […]\nRNAseq libraries were prepared using Truseq Stranded RNA producing single‐end reads of 100 bp and sequenced on Illumina Hiseq 2500 instrument. […]\nSequencing reads were quality controlled using FastQC (v0.11.8) (Wingett & Andrews, 2018). Mouse raw reads were aligned to the mouse genome (mm9) and human raw reads to the human genome (hg19) using TopHat (v2.0.11) (Kim et al, 2013). […]"}, "AR [9]": {"test_system": "AR", "test": "Percentage of AR+ cells in xenografted HBECs by co-IF for AR and hECAD", "format": "in vivo, human", "conditions": "21 days pellets, HBECs from 11 different patients", "from_the_text": "as §1, §2"}, "[10]": {"conditions": "NSG, mouse, in vivo", "procedure": "At sacrifice, blood was collected and plasma levels of the administered compounds as well as endogenous steroid hormones were determined by liquid chromatography‐mass spectrometry (LC‐MS) (Laszlo et al, 2019).\nPlasma steroid concentrations were measured by LC–MS High Resolution (Q‐Executive, Thermo Fisher Scientific) for testosterone, progesterone, and 17β‐estradiol as described in (Cagnet et al, 2018) and for progestins as described in (Laszlo et al, 2019)."}, "[11]": {"conditions": "BalbC females, 6 h of stimulation"}, "[12]": {"conditions": "BalbC-derived organoids, 24 h of stimulation"}, "[13]": {"conditions": "60 days of treatment, subcutaneous pellets"}}, "data": [{"molecule": "C#C[C@]1(O)CC[C@H]2[C@@H]3CCC4=CC(=O)CC[C@@H]4[C@H]3CC[C@@]21CC", "note": "[LNG, levonorgestrel]", "values": [{"measurement": "Rankl transcript levels over vehicle-treated control", "setting": "Rankl; [11]", "result": 27.7, "unit": "fold"}, {"measurement": "Rankl transcript induction", "setting": "Rankl; [12]", "result": 253.9, "unit": "fold"}, {"measurement": "Rankl transcript induction", "setting": "Rankl; C57Bl/6 mice, 6 h, 20 nM", "result": 21.6, "unit": "fold"}, {"measurement": "Wnt4 transcript levels over vehicle-treated control", "setting": "Wnt4; [11]", "result": 4.8, "unit": "fold"}, {"measurement": "Wnt4 transcript induction", "setting": "Wnt4; [12]", "result": 36.3, "unit": "fold"}, {"measurement": "Wnt4 transcript induction", "setting": "Wnt4; C57Bl/6 mice, 6 h, 20 nM", "result": 4.3, "unit": "fold"}, {"measurement": "endogenous progesterone plasma levels (estrous cycle-related variation)", "setting": "[1]", "result": "did not affect"}, {"measurement": "KLK3 transcript expression", "setting": "KLK3", "result": "increased"}, {"measurement": "cell proliferation (KI67 and hECAD double+ cells), overall analysis", "setting": "HBECs [2]", "result": "increased"}, {"measurement": "cell proliferation (KI67 and hECAD double+ cells)", "setting": "HBECs [2]", "result": "significantly increased"}, {"measurement": "proliferation rates of PDXs upon LNG exposure", "setting": "HBECs [3]", "result": "increased the proliferation rates in 2 of 3 PDXs"}, {"measurement": "reduction of LNG-induced radiance by down regulation of AR expression (shAR)", "setting": "AR [4]", "result": 22, "unit": "%"}, {"measurement": "morphologic changes in xenografts (H&E)", "setting": "human breast epithelium", "result": "3 or 4 grafts showed diffuse and in some cases marked acinar proliferation"}, {"measurement": "MKI67 expression at mRNA level", "setting": "HBECs [5]", "result": "increased"}, {"measurement": "MKI67 expression at protein level", "setting": "HBECs [5]", "result": "increased"}, {"measurement": "androgenic / anti-androgenic activity", "setting": "AR [6]", "result": "androgenic activity"}, {"measurement": "breast cancer risk", "setting": "women; women taking androgenic progestins, ref Rossouw et al, 2002", "result": "elevated breast cancer risk"}, {"measurement": "RR of breast cancer", "setting": "women; women, ref Hunter et al, 2010", "result": 3.05}, {"measurement": "lobular breast cancer risk compared to the general population", "setting": "women; women, ref Hunter et al, 2010", "result": 1.45}, {"measurement": "RR for ductal breast cancer", "setting": "women; women, ref Soini et al, 2016", "result": 1.20}, {"measurement": "cell proliferation by radiance measurements", "setting": "HBECs [7]; 3 weeks of treatment, mammoplasty M354", "result": "stimulated cell proliferation"}, {"measurement": "growth (course of radiance) of engrafted HBECs versus control", "setting": "HBECs [7]; [13]", "result": "increased growth"}]}, {"molecule": "CC(=O)[C@H]1CC[C@H]2[C@@H]3CCC4=CC(=O)CC[C@]4(C)[C@H]3CC[C@]12C", "note": "[progesterone]", "values": [{"measurement": "RANKL expression (variant stabilized gene expression values)", "setting": "[8]", "result": "increased expression"}, {"measurement": "WNT4 expression (variant stabilized gene expression values)", "setting": "[8]", "result": "increased expression"}, {"measurement": "cell proliferation (KI67 and hECAD double+ cells), overall analysis", "setting": "HBECs [2]", "result": "increased"}, {"measurement": "cell proliferation (KI67 and hECAD double+ cells)", "setting": "HBECs [2]", "result": "significantly increased"}, {"measurement": "percentage of AR+ cells (AR index)", "setting": "AR [9]", "result": "decreased"}, {"measurement": "plasma progesterone relative to average levels in control mice", "setting": "[10]", "result": 4.9, "unit": "times"}, {"measurement": "association with breast cancer risk", "setting": "women", "result": "not associated with breast cancer risk"}, {"measurement": "growth (course of radiance) of engrafted HBECs versus control", "setting": "HBECs [7]; [13]", "result": "increased"}, {"measurement": "relative radiance at endpoint over control (FC)", "setting": "HBECs [7]; [13]", "result": 1.3, "unit": "fold"}]}]}
